≈ marks a conversion by molar mass, not a printed value. Read-outs that look alike come from different tables or passages of the source.
Assays:
[1] = system: Moloney Sarcoma virus (MSV); assay: MSV foci formation in mouse embryo fibroblasts (in vitro); format: cell-based; conditions: Fibroblast, read-out: ID50 MSV foci formation
Procedure: (§1) (2) Mouse embryo fibroblasts (MEF) were plated on 35 mm. Falcon plastic dishes, infected 24 hours later with Moloney Sarcoma virus (MSV), and treated for 3 days with different concentrations of the compounds of the invention. The number of foci of transformed cells was microscopically ascertained 5 days after the infection. Uninfected MEF were similarly treated, and at the end of the test, the cells were counted in a hemocytometer. In all the tests, the cells were incubated in a 5% CO2 incubator at 37° C.
(§2) The test compounds were dissolved in distilled water and then diluted in culture medium.
(§3) The results are reported in Table I as ID50 (Inhibiting Dose 50%), calculated on dose-effects lines.

[2] = MEF proliferation (uninfected mouse embryo fibroblasts, in vitro); format: cell-based; conditions: time of exposure 72 hours, read-out: ID50 MEF proliferation
Procedure: as §1, §2

HeLa cells = HeLa cells cloning efficiency (in vitro); format: cell-based; conditions: for IC50: Homo sapiens, HeLa, read-out: ID50 HeLa cells cloning efficiency
Procedure: (1) HeLa cells were exposed to each of compounds (I) and (V) for 2, 8 and 24 hours, after which the compounds were removed and the cells seeded on […]. Falcon plastic dishes (200 cells/plate) in a growth medium. The number of colonies was ascertained microscopically 5 days later.
as §2, §3

ascites Sarcoma 180 = assay: Antitumor activity on ascites Sarcoma 180 in CD 1 mice; format: in vivo; conditions: for LTS, Long Term survivors: after 60 days; for T/C, median survival time as % over controls: 1 treatment i.p. at day 1
Procedure: (§4) The antitumor activity of the compounds of the invention was tested on ascites Sarcoma 180. 3 month old CD 1 mice were used. Sarcoma 180 ascites cells were inoculated intraperitoneally (10^6 cells/mouse).
(§5) The test compounds were dissolved in distilled water, then diluted in Ringer's solution, and administered intraperitoneally 1 day after the tumor implant (10 ml./kg. of body weight). The toxicity of the test compounds was evaluated by macroscopic autoptic examination, mainly in terms of reduction in spleen size. The comparison of the effectiveness of the tested compounds is based on the maximum increase in median survival time, as compared to untreated controls, over the dose range used. The number of Long Term Survivors (LTS) refers to tumor-free mice at the end of the test (60 days).

[3] = Toxicity in Sarcoma 180 bearing CD 1 mice (toxic deaths, autopsy); format: in vivo
Procedure: as §4, §5

Compound	IC50 ([1]; 72 h)	CC50 at 72 h [2]	IC50 (HeLa cells; 2 h)	IC50 (HeLa cells; 8 h)	IC50 (HeLa cells; 24 h)	LTS, Long Term survivors (ascites Sarcoma 180; 10 mg./kg. i.p. at day 1)	T/C, median survival time as % over controls (ascites Sarcoma 180; 10 mg./kg.)	T/C, median survival time as % over controls (ascites Sarcoma 180; 2 mg./kg.)	LTS, Long Term survivors (ascites Sarcoma 180; 0.5 mg./kg. i.p. at day 1)	T/C, median survival time as % over controls (ascites Sarcoma 180; 0.5 mg./kg.)	LTS, Long Term survivors (ascites Sarcoma 180; 1 mg./kg. i.p. at day 1)	T/C, median survival time as % over controls (ascites Sarcoma 180; 1 mg./kg.)	LTS, Long Term survivors (ascites Sarcoma 180; 2 mg./kg. i.p. at day 1)	T/C, median survival time as % over controls (ascites Sarcoma 180; 5 mg./kg.)	Toxicity, number of mice which died as a result of the toxic effects of the compound ([3]; 5 mg./kg. i.p. at day 1)	also measured
COc1cccc2c1C(=O)c1c(O)c3c(c(O)c1C2=O)C[C@@](O)(C(=O)CO)C[C@@H]3O[C@H]1C[C@H](N)[C@@H](O)[C@H](CO)O1 [4'-epi-6'-hydroxyadriamycin]	0.025 µg/mL (≈ 0.0447 µM)	0.05 µg/mL (≈ 0.0894 µM)	0.9 µg/mL (≈ 1.61 µM)	1 µg/mL (≈ 1.79 µM)	1 µg/mL (≈ 1.79 µM)	2/10	162%	–	–	–	–	–	–	–	–	LTS, Long Term survivors (ascites Sarcoma 180; 7.5 mg./kg. i.p. at day 1): 1/10; T/C, median survival time as % over controls (ascites Sarcoma 180; 7.5 mg./kg.): 143%; LTS, Long Term survivors (ascites Sarcoma 180; 15 mg./kg. i.p. at day 1): 2/10; T/C, median survival time as % over controls (ascites Sarcoma 180; 15 mg./kg.): 134%; Toxicity (in words) ([3]; 15 mg./kg. i.p. at day 1): not toxic
COc1cccc2c1C(=O)c1c(O)c3c(c(O)c1C2=O)C[C@@](O)(C(C)=O)C[C@@H]3O[C@H]1C[C@H](N)[C@@H](O)[C@H](CO)O1 [4'-epi-6'-hydroxydaunomycin]	–	0.25 µg/mL (≈ 0.46 µM)	–	–	–	–	167%	100%	–	–	–	–	–	–	–	IC50 ([1]; time of exposure 72 hours): 0.1 µg/mL (≈ 0.184 µM); IC50 (HeLa cells; time of exposure 2 hours): > 10 µg/mL; IC50 (HeLa cells; time of exposure 8 hours): > 10 µg/mL; IC50 (HeLa cells; time of exposure 24 hours): 1.3 µg/mL (≈ 2.39 µM); decrease of activity as compared to parent compound (HeLa cells; in vitro systems tested (HeLa cells, MSV foci, MEF proliferation), compared with 4'-epi-6'-hydroxyadriamycin versus adriamycin): The decrease of activity was higher; T/C, median survival time as % over controls (ascites Sarcoma 180; 50 mg./kg.): 137%; Toxicity, number of mice which died as a result of the toxic effects of the compound ([3]; 50 mg./kg. i.p. at day 1): 1/10
COc1cccc2c1C(=O)c1c(O)c3c(c(O)c1C2=O)C[C@@](O)(C(=O)CO)C[C@@H]3O[C@H]1C[C@H](N)[C@H](O)[C@H](C)O1 [Adriamycin, adriamycin]	0.0025 µg/mL (≈ 0.0046 µM)	0.007 µg/mL (≈ 0.0129 µM)	0.28 µg/mL (≈ 0.515 µM)	0.11 µg/mL (≈ 0.202 µM)	0.018 µg/mL (≈ 0.0331 µM)	18/139	212%	210%	1/10	142%	25/159	183%	30/125	243%	7/125	LTS, Long Term survivors (ascites Sarcoma 180; 5 mg./kg. i.p. at day 1): 27/125; Toxicity, number of mice which died as a result of the toxic effects of the compound ([3]; 10 mg./kg. i.p. at day 1): 18/139
COc1cccc2c1C(=O)c1c(O)c3c(c(O)c1C2=O)C[C@@](O)(C(C)=O)C[C@@H]3O[C@H]1C[C@H](N)[C@H](O)[C@H](C)O1 [Daunomycin, daunomycin]	0.0055 µg/mL (≈ 0.0104 µM)	0.009 µg/mL (≈ 0.0171 µM)	0.03 µg/mL (≈ 0.0569 µM)	0.013 µg/mL (≈ 0.0246 µM)	0.003 µg/mL (≈ 0.00569 µM)	–	–	192%	3/20	146%	8/55	172%	11/68	176%	14/50	T/C, median survival time as % over controls (ascites Sarcoma 180; 8 mg./kg.): 78%; Toxicity, number of mice which died as a result of the toxic effects of the compound ([3]; 8 mg./kg. i.p. at day 1): 7/10
